Assay results from ChEMBL document CHEMBL1158513, “Identification and SAR of novel pyrrolo[1,2-a]pyrazin-1(2H)-one derivatives as inhibitors of poly(ADP-ribose) polymerase-1 (PARP-1)” (Bioorg Med Chem Lett, 2010).
“And” between values parts separate entries of the source, which are not always exact repeats. Equal values may be shown once.

Experiments:
[1] = biological target: Poly [ADP-ribose] polymerase 1 (Homo sapiens, UniProt P09874); assay: Inhibition of PARP1 by topcount microplate scintillation counter
Chain of Poly [ADP-ribose] polymerase 1 (P09874 whole entry): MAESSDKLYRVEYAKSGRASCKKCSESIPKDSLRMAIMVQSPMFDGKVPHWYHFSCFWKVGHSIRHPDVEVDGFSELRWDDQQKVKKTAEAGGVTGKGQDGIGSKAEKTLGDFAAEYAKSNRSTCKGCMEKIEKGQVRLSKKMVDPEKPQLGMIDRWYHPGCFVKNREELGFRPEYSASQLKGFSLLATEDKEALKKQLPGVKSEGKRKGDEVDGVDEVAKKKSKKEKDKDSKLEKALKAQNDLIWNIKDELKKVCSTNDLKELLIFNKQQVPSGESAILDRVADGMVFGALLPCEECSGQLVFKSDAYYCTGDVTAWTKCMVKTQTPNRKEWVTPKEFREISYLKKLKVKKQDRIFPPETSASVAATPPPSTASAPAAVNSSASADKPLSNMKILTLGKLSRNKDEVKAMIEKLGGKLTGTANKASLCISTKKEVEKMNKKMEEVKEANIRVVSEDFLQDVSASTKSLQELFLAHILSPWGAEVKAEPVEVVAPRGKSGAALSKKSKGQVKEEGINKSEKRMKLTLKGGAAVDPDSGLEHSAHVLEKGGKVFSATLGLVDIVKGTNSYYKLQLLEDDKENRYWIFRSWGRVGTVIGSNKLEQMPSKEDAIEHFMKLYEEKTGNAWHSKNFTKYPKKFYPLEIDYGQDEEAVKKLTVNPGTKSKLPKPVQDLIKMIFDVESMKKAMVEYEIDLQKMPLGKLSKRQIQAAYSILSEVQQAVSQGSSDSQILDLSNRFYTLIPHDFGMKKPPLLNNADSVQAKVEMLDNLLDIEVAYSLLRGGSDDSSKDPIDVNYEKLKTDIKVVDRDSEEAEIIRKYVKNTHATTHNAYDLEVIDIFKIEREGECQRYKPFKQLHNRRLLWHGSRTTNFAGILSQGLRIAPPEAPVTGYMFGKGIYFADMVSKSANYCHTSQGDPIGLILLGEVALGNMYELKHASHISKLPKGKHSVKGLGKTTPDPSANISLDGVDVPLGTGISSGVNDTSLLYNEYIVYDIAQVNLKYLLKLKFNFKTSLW

HeLa [2] = assay: Antiproliferative activity against BRCA1-deficient human HeLa cells after 7 days by celltiter-blue assay; type: functional; settings: 168 h
HeLa [3] = assay: Antiproliferative activity against BRCA1-proficient human HeLa cells after 7 days by celltiter-blue assay; type: functional; settings: 168 h
HeLa [4] = assay: Selectivity ratio of CC50 for BRCA1-proficient human HeLa to CC50 for BRCA1-deficient human HeLa cells; type: functional
[5] = Lipophilicity, log D of the compound; type: physicochemical; settings: octanol/water
[6] = Clearance in rat; type: ADME, organism-based; settings: in vivo
[7] = Intrinsic clearance in rat liver microsomes; type: ADME, Microsome
CYP3A4 = CYP3A4 (Homo sapiens, UniProt P08684); assay: Inhibition of CYP3A4 at 10 uM; type: ADME
Chain of CYP3A4 (P08684 whole entry): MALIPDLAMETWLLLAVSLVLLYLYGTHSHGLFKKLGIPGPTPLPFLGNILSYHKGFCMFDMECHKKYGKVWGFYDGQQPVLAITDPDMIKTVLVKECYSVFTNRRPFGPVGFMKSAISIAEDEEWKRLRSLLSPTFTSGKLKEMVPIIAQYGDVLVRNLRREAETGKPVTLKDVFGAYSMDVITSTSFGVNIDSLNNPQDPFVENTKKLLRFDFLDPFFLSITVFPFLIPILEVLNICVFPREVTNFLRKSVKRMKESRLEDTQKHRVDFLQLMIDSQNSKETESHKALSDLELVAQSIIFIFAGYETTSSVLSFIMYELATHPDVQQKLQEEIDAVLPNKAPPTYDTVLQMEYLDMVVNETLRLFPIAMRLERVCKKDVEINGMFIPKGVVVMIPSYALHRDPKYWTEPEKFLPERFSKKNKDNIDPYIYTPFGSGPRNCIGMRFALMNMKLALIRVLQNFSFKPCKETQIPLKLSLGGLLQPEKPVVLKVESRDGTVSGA

SMILES | IC50 [1] [nM] | logD [5] | CC50 (HeLa [2]) [nM] | CC50 (HeLa [3]) [nM] | Selectivity ratio (HeLa [4]) | clearance [6] [mL/min/kg] | microsomal CLint [7] [µL/min/mg] | inhibition at 10 µM (CYP3A4) [%]
O=C(c1cc(Cc2c[nH]c(=O)c3cc(Cl)c(Cl)n23)ccc1F)N1CCN(c2ncccn2)CC1 | 3.1 | – | 130 | 2800 | – | – | – | –
CCCCN1CCN(C(=O)c2cc(Cc3c[nH]c(=O)c4cc(Cl)c(Cl)n34)ccc2F)CC1 | 13 | – | 1600 | > 10000 | – | – | – | –
N#Cc1cccnc1N1CCN(C(=O)c2cc(Cc3c[nH]c(=O)c4cc(Cl)c(Cl)n34)ccc2F)CC1 | 0.7 | – | 62 | 1600 | 25 | – | – | –
CC(=O)N1CCCN(C(=O)c2cc(Cc3c[nH]c(=O)c4cc(Cl)c(Cl)n34)ccc2F)CC1 | 19 | – | 5700 | > 20000 | – | – | – | –
O=C(c1cc(Cc2c[nH]c(=O)c3cc(Cl)c(Cl)n23)ccc1F)N1CCN(c2ccccc2F)CC1 | 24 | – | > 10000 | > 10000 | – | – | – | –
N#Cc1ccc(N2CCN(C(=O)c3cc(Cc4c[nH]c(=O)c5cc(Cl)c(Cl)n45)ccc3F)CC2)nc1 | 14 | – | 200 | 4200 | – | – | – | –
O=C(c1cc(Cc2c[nH]c(=O)c3cc(Cl)cn23)ccc1F)N1CCCNCC1 | 1 | 0.58 | 2500 | > 20000 | – | – | – | –
O=C(c1cc(Cc2c[nH]c(=O)c3cc(Cl)c(Cl)n23)ccc1F)N1CCOCC1 | 59 | – | – | – | – | – | – | –
O=C(c1cc(Cc2c[nH]c(=O)c3cc(Cl)c(Cl)n23)ccc1F)N1CCN(CCO)CC1 | 13 | – | > 5000 | > 10000 | – | – | – | –
COc1cccnc1N1CCN(C(=O)c2cc(Cc3c[nH]c(=O)c4cc(Cl)c(Cl)n34)ccc2F)CC1 | 15 | – | 2700 | > 5000 | – | – | – | –
CCN(CC)C1CCN(C(=O)c2cc(Cc3c[nH]c(=O)c4cc(Cl)c(Cl)n34)ccc2F)CC1 | 22 | – | 1100 | > 5000 | – | – | – | –
O=C(c1cc(Cc2c[nH]c(=O)c3cc(Cl)c(Cl)n23)ccc1F)N1CCC2(CCCCN2)CC1 | 6.2 | – | 220 | > 5000 | – | – | – | –
O=C(c1cc(Cc2c[nH]c(=O)c3cc(Cl)c(Cl)n23)ccc1F)N1CCN(C2CCCCC2)CC1 | 14 | – | 970 | > 5000 | – | – | – | –
O=C(c1cc(Cc2c[nH]c(=O)c3cc(Cl)c(Cl)n23)ccc1F)N1CCC2(CCN2)CC1 | 8.2 | – | 2300 | > 5000 | – | – | – | –
O=C(c1cc(Cc2c[nH]c(=O)c3cc(Cl)c(Cl)n23)ccc1F)N1CCC(N2CCCC2)CC1 | 5.4 | – | 120 | > 5000 | – | 94 | 135 | 30
CC(C)(C)C(=O)N1CCN(C(=O)c2cc(Cc3c[nH]c(=O)c4cc(Cl)c(Cl)n34)ccc2F)CC1 | 1 | – | 340 | > 5000 | – | – | – | –
O=C(c1cc(Cc2c[nH]c(=O)c3cc(Cl)c(Cl)n23)ccc1F)N1CCN(c2cccnc2)CC1 | 12 | – | > 5000 | > 5000 | 20 | – | – | –
CNC1CCN(C(=O)c2cc(Cc3c[nH]c(=O)c4cc(Cl)c(Cl)n34)ccc2F)CC1 | 2.3 | – | 400 | > 5000 | – | – | – | –
O=C(c1cc(Cc2c[nH]c(=O)c3cc(Cl)c(Cl)n23)ccc1F)N1CCN(c2cc3ccccc3cn2)CC1 | 1.8 | – | 320 | 1200 | – | – | – | –
O=C(c1cc(Cc2c[nH]c(=O)c3cc(Cl)c(Cl)n23)ccc1F)N1CCC2(CC1)NCNC2=O | 9 | – | > 2500 | > 5000 | – | – | – | –
CCS(=O)(=O)N1CCN(C(=O)c2cc(Cc3c[nH]c(=O)c4cc(Cl)c(Cl)n34)ccc2F)CC1 | 9 | – | 3000 | > 5000 | – | – | – | –
CC(C)CN1CCN(C(=O)c2cc(Cc3c[nH]c(=O)c4cc(Cl)c(Cl)n34)ccc2F)CC1 | 14 | – | 250 | > 10000 | – | – | – | –
CN(C)CCN1CCN(C(=O)c2cc(Cc3c[nH]c(=O)c4cc(Cl)c(Cl)n34)ccc2F)CC1 | 18 | – | > 10000 | > 10000 | – | – | – | –
O=C(c1cc(Cc2c[nH]c(=O)c3cc(Cl)c(Cl)n23)ccc1F)N1CCC(N2CCC2)CC1 | 1 | – | 180 | > 10000 | – | – | – | –
O=C(c1cc(Cc2c[nH]c(=O)c3cc(Cl)c(Cl)n23)ccc1F)N1CCN(C(=O)C2CCCC2)CC1 | 3.7 | – | 270 | > 5000 | – | – | – | –
O=C(c1cc(Cc2c[nH]c(=O)c3cc(Cl)c(Cl)n23)ccc1F)N1CCCCC1 | 200 | – | – | – | – | – | – | –
CN(C)C(=O)N1CCN(C(=O)c2cc(Cc3c[nH]c(=O)c4cc(Cl)c(Cl)n34)ccc2F)CC1 | 7.2 | – | 670 | > 10000 | – | – | – | –
O=C(c1cc(Cc2c[nH]c(=O)c3cc(Cl)c(Cl)n23)ccc1F)N1CCC2(CCCN2)CC1 | – | – | 48 | > 10000 | 50 | – | – | –
CN1CCN(C(=O)c2cc(Cc3c[nH]c(=O)c4cc(Cl)c(Cl)n34)ccc2F)CC1 | 41 | – | – | – | – | – | – | –

Further lines, with some results ahead:

IC50 [1] [nM] | logD [5] | SMILES | CC50 (HeLa [2]) [nM] | CC50 (HeLa [3]) [nM] | Selectivity ratio (HeLa [4]) | clearance [6] [mL/min/kg] | microsomal CLint [7] [µL/min/mg] | inhibition at 10 µM (CYP3A4) [%]
2.5 | – | CN(C)CC(=O)N1CCN(C(=O)c2cc(Cc3c[nH]c(=O)c4cc(Cl)c(Cl)n34)ccc2F)CC1 | 3500 | > 10000 | – | – | – | –
2.6 | – | CN(C)C1CCN(C(=O)c2cc(Cc3c[nH]c(=O)c4cc(Cl)c(Cl)n34)ccc2F)CC1 | 1600 | > 10000 | – | – | – | –
1.4 | – | O=C(c1cc(Cc2c[nH]c(=O)c3cc(Cl)c(Cl)n23)ccc1F)N1CCN(c2ncnc3ccccc23)CC1 | 60 | 920 | – | – | – | –
4 | – | O=C(c1cc(Cc2c[nH]c(=O)c3c(Cl)cc(Cl)n23)ccc1F)N1CCCNCC1 | 18000 | > 20000 | – | – | – | –
2.1 | – | CNC(C)(C)C(=O)N1CCN(C(=O)c2cc(Cc3c[nH]c(=O)c4cc(Cl)c(Cl)n34)ccc2F)CC1 | 53 | > 5000 | 100 and 50 | > 200 | – | –
2 | – | CN(C)C(=O)C(=O)N1CCN(C(=O)c2cc(Cc3c[nH]c(=O)c4cc(Cl)c(Cl)n34)ccc2F)CC1 | 1800 | > 10000 | – | – | – | –
1.6 | – | Cc1cc2c(=O)[nH]cc(Cc3ccc(F)c(C(=O)N4CCCNCC4)c3)n2c1 | 3400 | > 20000 | – | – | – | –
2.3 | – | O=C(c1cc(Cc2c[nH]c(=O)c3cc(Cl)c(Cl)n23)ccc1F)N1CCNCC1 | 180 | > 20000 | – | – | – | –
2.4 | – | CN(C)S(=O)(=O)N1CCN(C(=O)c2cc(Cc3c[nH]c(=O)c4cc(Cl)c(Cl)n34)ccc2F)CC1 | 910 | > 10000 | – | – | – | –
1 | – | O=C(c1cc(Cc2c[nH]c(=O)c3cc(Cl)c(Cl)n23)ccc1F)N1CCN(c2ncc3ccccc3n2)CC1 | 190 | 770 | – | – | – | –
2.8 | – | O=C(c1cc(Cc2c[nH]c(=O)c3cc(Cl)c(Cl)n23)ccc1F)N1CCN(c2ccccn2)CC1 | 430 | > 10000 | – | – | – | –
2.4 | – | O=C(c1ccccn1)N1CCN(C(=O)c2cc(Cc3c[nH]c(=O)c4cc(Cl)c(Cl)n34)ccc2F)CC1 | 150 | > 5000 | 30 | – | – | –
5.1 | – | CN(C)C(C)(C)C(=O)N1CCN(C(=O)c2cc(Cc3c[nH]c(=O)c4cc(Cl)c(Cl)n34)ccc2F)CC1 | 200 | > 5000 | – | – | – | –
1.6 | – | O=C(c1cc(Cc2c[nH]c(=O)c3c(Cl)c(Cl)cn23)ccc1F)N1CCCNCC1 | 220 | > 20000 | – | – | – | –
2.6 | 0.91 | O=C(c1cc(Cc2c[nH]c(=O)c3cc(Cl)c(Cl)n23)ccc1F)N1CCCNCC1 | 170 | > 20000 | – | – | – | –
7.1 | – | NC1CCN(C(=O)c2cc(Cc3c[nH]c(=O)c4cc(Cl)c(Cl)n34)ccc2F)CC1 | 3800 | > 10000 | – | – | – | –
6.3 | – | CC(=O)N1CCN(C(=O)c2cc(Cc3c[nH]c(=O)c4cc(Cl)c(Cl)n34)ccc2F)CC1 | 700 | > 10000 | – | – | – | –
3.1 | – | O=C(c1ncc[nH]1)N1CCN(C(=O)c2cc(Cc3c[nH]c(=O)c4cc(Cl)c(Cl)n34)ccc2F)CC1 | 500 | > 5000 | – | – | – | –
5 | – | CN1CCCN(C(=O)c2cc(Cc3c[nH]c(=O)c4cc(Cl)c(Cl)n34)ccc2F)CC1 | 1100 | > 20000 | – | – | – | –
2.1 | – | CC(C)C(=O)N1CCN(C(=O)c2cc(Cc3c[nH]c(=O)c4cc(Cl)c(Cl)n34)ccc2F)CC1 | 150 | > 5000 | 30 | – | – | –
3.2 | – | CCC(=O)N1CCN(C(=O)c2cc(Cc3c[nH]c(=O)c4cc(Cl)c(Cl)n34)ccc2F)CC1 | 1200 | > 5000 | – | – | – | –
1.8 | -0.89 | O=C(c1cc(Cc2c[nH]c(=O)c3cccn23)ccc1F)N1CCCNCC1 | > 20000 | > 20000 | – | – | – | –
